Patent publication US4395417A, “Antihyperlipidemic compositions” (Research Corporation, priority 1980, dated 1983)

These compounds were tested on serum cholesterol (assay: Serum cholesterol of male CF1 mice (Liebermann-Burchard reaction)). Settings: Mus musculus, ip, 216 h; Table 3; mice, N = 6, 9th day; control 115 mg %; read-out: serum cholesterol, 9th day.
Assay type: in vivo
Experimental: (§1) For hypolipidemic activity, the compounds were tested at 20 mg/kg/day administered I.P. to male CF1 mice (~30 g). On days 9 and 16 blood was collected by tail-vein bleeding. Serum cholesterol was determined by the Liebermann-Burchard reaction. Serum triglyceride levels were determined using the Hycel commercial kits on a separate group of mice, which were bled on day 14.

| SMILES | response vs control in vivo at 20 mg/kg/day |
| --- | --- |
| O=C(O)CCCCCN1C(=O)c2ccccc2C1=O [6-N--phthalimidocaproic acid] | 81 ± 6% |
| CCCCCCCN1C(=O)c2ccccc2C1=O [N--n-heptylphthalimide] | 99 ± 7% |
| O=C(O)CN1C(=O)c2ccccc2C1=O [2-N--phthalimidoacetic acid] | 76 ± 7% |
| CCN1C(=O)c2ccccc2C1=O [N--ethylphthalimide] | 83 ± 4% |
| CCCCCCCCN1C(=O)c2ccccc2C1=O [N--n-octylphthalimide] | 101 ± 7% |
| CC(=O)CCCCN1C(=O)c2ccccc2C1=O [1-N--phthalimidohexan-5-one] | 65 ± 9% |
| CC(=O)OCCN1C(=O)c2ccccc2C1=O [N--phthalimidoethyl acetate] | 93 ± 13% |
| CC(=O)CCCCCN1C(=O)c2ccccc2C1=O [1-N--phthalimidoheptan-6-one] | 71 ± 6% |
| CN1C(=O)c2ccccc2C1=O [N--methylphthalimide] | 74 ± 4% |
| CC(=O)OCCCCN1C(=O)c2ccccc2C1=O [N--phthalimidobutan-1-ol acetate] | 93 ± 9% |
| O=C(O)CCCN1C(=O)c2ccccc2C1=O [4-N--phthalimidobutyric acid] | 80 ± 7% |
| O=C1NC(=O)c2ccccc21.[K] [potassium phthalimide] | 63 ± 6% |
| CC(=O)OCCCN1C(=O)c2ccccc2C1=O [N--phthalimidopropan-1-ol acetate] | 102 ± 4% |
| CCCN1C(=O)c2ccccc2C1=O [N--n-propylphthalimide] | 96 ± 4% |
| CCCCCCN1C(=O)c2ccccc2C1=O [N--n-hexylphthalimide] | 96 ± 5% |
| CCCCCN1C(=O)c2ccccc2C1=O [N--n-pentylphthalimide] | 76 ± 5% |

Same assay, conditions: Mus musculus, ip, 384 h; Table 3; mice, N = 6, 16th day; control 118 mg %; read-out: serum cholesterol, 16th day

| SMILES | response vs control in vivo at 20 mg/kg/day |
| --- | --- |
| O=C(O)CCCCCN1C(=O)c2ccccc2C1=O [6-N--phthalimidocaproic acid] | 67 ± 3% |
| CCCCCCCN1C(=O)c2ccccc2C1=O [N--n-heptylphthalimide] | 72 ± 4% |
| O=C(O)CN1C(=O)c2ccccc2C1=O [2-N--phthalimidoacetic acid] | 68 ± 7% |
| CCN1C(=O)c2ccccc2C1=O [N--ethylphthalimide] | 76 ± 2% |
| CCCCCCCCN1C(=O)c2ccccc2C1=O [N--n-octylphthalimide] | 82 ± 3% |
| CC(=O)CCCCN1C(=O)c2ccccc2C1=O [1-N--phthalimidohexan-5-one] | 65 ± 7% |
| CC(=O)OCCN1C(=O)c2ccccc2C1=O [N--phthalimidoethyl acetate] | 95 ± 1% |
| CC(=O)CCCCCN1C(=O)c2ccccc2C1=O [1-N--phthalimidoheptan-6-one] | 75 ± 12% |
| CN1C(=O)c2ccccc2C1=O [N--methylphthalimide] | 74 ± 8% |
| CC(=O)OCCCCN1C(=O)c2ccccc2C1=O [N--phthalimidobutan-1-ol acetate] | 66 ± 5% |
| O=C(O)CCCN1C(=O)c2ccccc2C1=O [4-N--phthalimidobutyric acid] | 68 ± 6% |
| O=C1NC(=O)c2ccccc21.[K] [potassium phthalimide] | 78 ± 3% |
| CC(=O)OCCCN1C(=O)c2ccccc2C1=O [N--phthalimidopropan-1-ol acetate] | 66 ± 2% |
| CCCN1C(=O)c2ccccc2C1=O [N--n-propylphthalimide] | 74 ± 5% |
| CCCCCCN1C(=O)c2ccccc2C1=O [N--n-hexylphthalimide] | 66 ± 4% |
| CCCCCN1C(=O)c2ccccc2C1=O [N--n-pentylphthalimide] | 58 ± 3% |

What follows are compounds tested on serum triglyceride (assay: Serum triglyceride levels of male mice (Hycel commercial kits)). Settings: Mus musculus, ip, 336 h; Table 3; mice, N = 6; control 138 mg %; read-out: serum triglycerides.
Assay type: in vivo, male CF1 mice
Experimental: as §1

| SMILES | response vs control in vivo at 20 mg/kg/day |
| --- | --- |
| O=C(O)CCCCCN1C(=O)c2ccccc2C1=O [6-N--phthalimidocaproic acid] | 51 ± 12% |
| CCCCCCCN1C(=O)c2ccccc2C1=O [N--n-heptylphthalimide] | 84 ± 6% |
| O=C(O)CN1C(=O)c2ccccc2C1=O [2-N--phthalimidoacetic acid] | 72 ± 9% |
| CCN1C(=O)c2ccccc2C1=O [N--ethylphthalimide] | 87 ± 5% |
| CCCCCCCCN1C(=O)c2ccccc2C1=O [N--n-octylphthalimide] | 77 ± 4% |
| CC(=O)CCCCN1C(=O)c2ccccc2C1=O [1-N--phthalimidohexan-5-one] | 77 ± 5% |
| CC(=O)OCCN1C(=O)c2ccccc2C1=O [N--phthalimidoethyl acetate] | 82 ± 7% |
| CC(=O)CCCCCN1C(=O)c2ccccc2C1=O [1-N--phthalimidoheptan-6-one] | 88 ± 5% |
| CN1C(=O)c2ccccc2C1=O [N--methylphthalimide] | 68 ± 8% |
| CC(=O)OCCCCN1C(=O)c2ccccc2C1=O [N--phthalimidobutan-1-ol acetate] | 88 ± 7% |
| O=C(O)CCCN1C(=O)c2ccccc2C1=O [4-N--phthalimidobutyric acid] | 59 ± 14% |
| O=C1NC(=O)c2ccccc21.[K] [potassium phthalimide] | 88 ± 4% |
| CC(=O)OCCCN1C(=O)c2ccccc2C1=O [N--phthalimidopropan-1-ol acetate] | 89 ± 9% |
| CCCN1C(=O)c2ccccc2C1=O [N--n-propylphthalimide] | 81 ± 9% |
| CCCCCCN1C(=O)c2ccccc2C1=O [N--n-hexylphthalimide] | 84 ± 8% |
| CCCCCN1C(=O)c2ccccc2C1=O [N--n-pentylphthalimide] | 75 ± 16% |

These compounds were tested against T1, Acetyl-CoA Synthetase (Mus musculus, UniProt Q9QXG4) (assay: In vitro acetyl coenzyme A synthetase activity (method of Goodridge)). Settings: Table 3, N = 6, control 10.8 mg/g wet tissue.
T1 construct: gm wet tissue/30 min; from tissue
Assay type: biochemical, mice

T1 sequence (Q9QXG4 whole entry): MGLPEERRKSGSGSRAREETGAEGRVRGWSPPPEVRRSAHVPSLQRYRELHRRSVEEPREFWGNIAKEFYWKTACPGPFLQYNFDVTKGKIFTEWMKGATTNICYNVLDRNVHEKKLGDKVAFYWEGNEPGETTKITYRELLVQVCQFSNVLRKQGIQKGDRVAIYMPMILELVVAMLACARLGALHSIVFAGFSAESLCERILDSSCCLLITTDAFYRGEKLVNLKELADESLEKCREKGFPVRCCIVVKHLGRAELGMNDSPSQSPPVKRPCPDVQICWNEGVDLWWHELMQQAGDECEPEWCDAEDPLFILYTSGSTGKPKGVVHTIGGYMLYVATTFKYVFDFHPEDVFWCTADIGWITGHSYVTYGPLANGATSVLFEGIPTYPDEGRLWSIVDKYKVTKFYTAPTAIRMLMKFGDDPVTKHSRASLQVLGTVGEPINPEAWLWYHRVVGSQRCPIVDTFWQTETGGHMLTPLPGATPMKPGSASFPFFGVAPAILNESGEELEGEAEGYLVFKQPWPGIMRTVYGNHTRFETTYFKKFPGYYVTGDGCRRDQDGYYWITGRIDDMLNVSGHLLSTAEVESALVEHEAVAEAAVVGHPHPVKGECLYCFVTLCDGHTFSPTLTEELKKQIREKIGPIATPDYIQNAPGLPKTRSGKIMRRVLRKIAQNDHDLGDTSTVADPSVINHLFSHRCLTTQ

| SMILES | in vitro AcCoA synthetase |
| --- | --- |
| O=C(O)CCCCCN1C(=O)c2ccccc2C1=O [6-N--phthalimidocaproic acid] | 59 ± 9 % Control |
| CCCCCCCN1C(=O)c2ccccc2C1=O [N--n-heptylphthalimide] | 71 ± 5 % Control |
| O=C(O)CN1C(=O)c2ccccc2C1=O [2-N--phthalimidoacetic acid] | 72 ± 12 % Control |
| CCN1C(=O)c2ccccc2C1=O [N--ethylphthalimide] | 82 ± 5 % Control |
| CCCCCCCCN1C(=O)c2ccccc2C1=O [N--n-octylphthalimide] | 76 ± 7 % Control |
| CC(=O)CCCCN1C(=O)c2ccccc2C1=O [1-N--phthalimidohexan-5-one] | 68 ± 6 % Control |
| CC(=O)OCCN1C(=O)c2ccccc2C1=O [N--phthalimidoethyl acetate] | 81 ± 6 % Control |
| CC(=O)CCCCCN1C(=O)c2ccccc2C1=O [1-N--phthalimidoheptan-6-one] | 85 ± 3 % Control |
| CN1C(=O)c2ccccc2C1=O [N--methylphthalimide] | 66 ± 12 % Control |
| CC(=O)OCCCCN1C(=O)c2ccccc2C1=O [N--phthalimidobutan-1-ol acetate] | 83 ± 2 % Control |
| O=C(O)CCCN1C(=O)c2ccccc2C1=O [4-N--phthalimidobutyric acid] | 64 ± 12 % Control |
| O=C1NC(=O)c2ccccc21.[K] [potassium phthalimide] | 78 ± 6 % Control |
| CC(=O)OCCCN1C(=O)c2ccccc2C1=O [N--phthalimidopropan-1-ol acetate] | 84 ± 2 % Control |
| CCCN1C(=O)c2ccccc2C1=O [N--n-propylphthalimide] | 67 ± 3 % Control |
| CCCCCCN1C(=O)c2ccccc2C1=O [N--n-hexylphthalimide] | 71 ± 12 % Control |
| CCCCCN1C(=O)c2ccccc2C1=O [N--n-pentylphthalimide] | 68 ± 6 % Control |
